The record followed here is US20220281860A1, “COMPOUNDS AND METHODS OF TREATING RNA-MEDIATED DISEASES” (Arrakis Therapeutics, Inc., priority 2016, published 2022).

Holding throughout (assay): Thermal shift binding assay
One experiment has as its system RNA3WJ_3.0.0_5IB_3FAM. The following applies: 1 μM RNA, 8 μM compound. From the text:
(§1) Purpose: Test binding of compounds for RNA three way junction (for example, a construct of 38 nt). Thermal shift assay based on established fluorescence quenching assay utilizing FAM as fluorescence tag and Iowa Black as quencher. Tags were attached at the 3′ and 5′ end, respectively. Stable formation of 3WJ upon compound binding would lead to quenching of the FAM fluorescence due to close proximity of the Iowa Black tag. Thermal unfolding leads to increase of fluorescence emission. Assay readout: FAM (465-510 nm) Thermal Shift.
(§2) Assay sample buffer used: 10 mM CacoK pH 7.2, 30 mM NaCl. Buffer preparation in Dnase/Rnase Free distilled water (Gibco Life Technologies).
(§3) Tool compounds provided as dry powder are prepared as 50 mM stock solution in 100% d6-DMSO. Stock solutions of 50 mM concentration in d6-DMSO are stored at RT.
(§4) Sample plate: Roche, Light Cycler480 Multiwell Plate96, white, REF 04729692001. (Dilution plate: Greiner REF 781101, PS-Microplate, 384 well, clear). Thermal Shift device: Roche, Light Cycler480.
(§5) Daily fresh (10 ml): 1 ml 100 mM CacoK pH 7.2 and 0.3 ml 1 M NaCl filled up to 10 ml with Dnase/Rnase Free distilled water.
(§6) Dilute the RNA 1:10 (final 10 μM) in Assay Buffer.
(§7) Heat up the diluted RNA up to 90° C. for 5 min (sealed Eppendorf Tube).
(§8) Cool down the RNA probe slowly to RT.
(§9) Dilute the compounds to 800 μM in DMSO (Assay: 8 μM).
(§10) 78.4 μL Assay Buffer are pipetted into Greiner REF 781101, PS-Microplate, 384 (each well needed).
(§11) Add 0.8 μL of the RNA-Solution ([…]).
Add 0.8 μL Compound-Solution ([…]). […]
(§12) Pipet 20 μL Sample Solution into Roche, Light Cycler480 Multiwell Plate96, white, REF 04729692001.
(§13) When sample transfer is finished, seal the plate with a clear topseal (part of REF 04729692001).
(§14) Centrifuge the plate with a table-top device to spin down the samples.
(§15) Measure the 96 plate with the LightCycler480 (Channel: 480/510 nm; Temperature: 41-91° C.).
(§16) Analyse measurement-data with the MeltingCurveGenotyping Mode.
(§17) Settings: Acquisition mode: continuous; Ramp rate: 0.1 C.°/sec; Acquisition: 6/C.° Melt Curve Genotyping for All Samples
(§18) Melting curves analysis show melting temperature (Tm) of ˜51° C. Range of RNA concentrations was tested and assay window was determined (conc. range of 0.5-1 μM yields best results). The choice of buffer also affected the Tm. RNA constructs were tested under different buffer conditions (especially in presence of salt) in the thermal shift assay. […] CacoK with 30 mM salt at 1 μM RNA conc. was used to assess compound effects on 3WJ stability. […] These conditions were used for screening test compounds.

The next experiment relates to RNA3WJ_1.1.1_5IB_3FAM. As to conditions: 1 μM RNA, 8 μM compound.
From the text: as §1, §2, §3, §4, §5, §6, §7, §8, §9, §10, §11
(§19) Add 0.8 μL Compound-Solution ([…]).
(§20) Final concentrations in the sample: 1 μM RNA, 8 μM compound, 1% DMSO
as §12, §13, §14, §15, §16, §17, §18

The subject of experiment [1] is RNA3WJ_0.0.0_5IB_3FAM (3WJ_0.0.0_5IB_3FAM) RNA three way junction. The following applies: RNA3WJ_0.0.0_5IB_3FAM; 1 μM RNA, 8 μM compound, 1% DMSO; 10 mM CacoK pH 7.2, 30 mM NaCl.
From the text: as §1, §2, §3, §4, §5, §6, §7, §8, §9, §10, §11, §19, §20, §12, §13, §14, §15, §16, §17, §18

The next experiment deals with RNA3WJ_2.1.0_5IB_3FAM. The following applies: 1 μM RNA, 8 μM compound.
From the text: as §1, §2, §3, §4, §5, §6, §7, §8, §9, §10, §11, §19, §20, §12, §13, §14, §15, §16, §17, §18

The next experiment concerns RNA3WJ_1.1.0_5IB_3FAM. The following applies: 1 μM RNA, 8 μM compound.
From the text: as §1, §2, §3, §4, §5, §6, §7, §8, §9, §10, §11, §19, §20, §12, §13, §14, §15, §16, §17, §18

Another experiment relates to RNA3WJ_2.0.0_5IB_3FAM. The following applies: 1 μM RNA, 8 μM compound.
From the text: as §1, §2, §3, §4, §5, §6, §7, §8, §9, §10, §11, §19, §20, §12, §13, §14, §15, §16, §17, §18

Experiment [2] relates to Split3WJ.1_up_5IB+Split3WJ.1_down_3FAM (trans 3WJ as 1:1 mix; Split3WJ_1). As to conditions: Split3WJ_1 (trans 3WJ), 1 μM RNA, 8 μM compound.
From the text: as §1, §2, §3, §4, §5, §6, §7, §8, §9, §10, §11, §19, §20, §12, §13, §14, §15, §16, §17, §18
(§21) Compounds Ark0000013 and Ark0000014 were also tested in the thermal shift assay against three RNA 3WJ constructs, A) RNA3WJ_1.0.0_5IB_3FAM (cis 3WJ with one unpaired nucleotide); B) Split3WJ.1_up_5IB+Split3WJ.1_down_3FAM (trans 3WJ as 1:1 mix); and C) Split3WJ.2_up_5IB+Split3WJ.2_down_3FAM (trans 3WJ as 1:1 mix).

Experiment [3] deals with RNA3WJ_1.0.0_5IB_3FAM (cis 3WJ with one unpaired nucleotide). The following applies: RNA3WJ_1.0.0_5IB_3FAM; for Melting temp [° C.] + cmpd / Temp. Shift [° C.]: 1 μM RNA, 8 μM compound, 1% DMSO, 10 mM CacoK pH 7.2, 30 mM NaCl.
From the text: as §1, §2, §3, §4, §5, §6, §7, §8, §9, §10, §11, §19, §20, §12, §13, §14, §15, §16, §17, §18, §21

Experiment [4] relates to Split3WJ.2_up_5IB+Split3WJ.2_down_3FAM (trans 3WJ as 1:1 mix; Split3WJ_2). As to conditions: Split3WJ_2 (trans 3WJ), 1 μM RNA, 8 μM compound.
From the text: as §1, §2, §3, §4, §5, §6, §7, §8, §9, §10, §11, §19, §20, §12, §13, §14, §15, §16, §17, §18, §21

`NCCCCCCCNC(=O)c1ccc2c(c1)C1c3cc(C(=O)NCCCCCCCN)ccc3C2c2ccc(C(=O)NCCCCCCCN)cc21` [Ark0000014, N^2,N^7,N^15-tris(7-aminoheptyl)-9,10-dihydro-9,10-[1,2]benzenoanthracene-2,7,15-tricarboxamide]: the “Melting temp [° C.] + cmpd” value was 63.9 °C in the experiment on RNA3WJ_3.0.0_5IB_3FAM; 64.3 °C with RNA3WJ_1.1.1_5IB_3FAM; 61.5 °C in [1]; 42.0 °C in the experiment on RNA3WJ_2.1.0_5IB_3FAM; 65.1 °C with RNA3WJ_1.1.0_5IB_3FAM; 64.4 °C with RNA3WJ_2.0.0_5IB_3FAM. The “Melting temp [° C.] + cmpd” value in experiment [2] worked out at 37.8 °C; in [2] (listed as Ark000014), 38.8 °C; in [3], 68.1 °C; in [3] (listed as Ark000014), 68.4 °C; in [4], 44.0 °C; in experiment [4] (listed as Ark000014), 44.7 °C. The “Temp. Shift [° C.]” value in the experiment on RNA3WJ_3.0.0_5IB_3FAM stood at 1.9 °C; with RNA3WJ_1.1.1_5IB_3FAM it was 2.1 °C; in experiment [1], 1.6 °C; in the experiment with RNA3WJ_2.1.0_5IB_3FAM, 0.1 °C; in the experiment with RNA3WJ_1.1.0_5IB_3FAM, 1.8 °C; in the experiment on RNA3WJ_2.0.0_5IB_3FAM it was 2.2 °C. Besides, the “Temp. Shift [° C.]” value was 0.3 °C in experiment [2]; ~1 °C in experiment [2] (listed as Ark000014); 2.5 °C in [3]; ~3 °C in [3] (listed as Ark000014); −0.3 °C in experiment [4]; ~1 °C in experiment [4] (listed as Ark000014).
With `CN(CCCN)CCCNC(=O)c1ccc2c(c1)C1c3cc(C(=O)NCCCN(C)CCCN)ccc3C2c2ccc(C(=O)NCCCN(C)CCCN)cc21` [Ark0000013, N^2,N^7,N^15-tris(3-((3-aminopropyl)(methyl)amino)propyl)-9,10-dihydro-9,10-[1,2]benzenoanthracene-2,7,15-tricarboxamide], the “Melting temp [° C.] + cmpd” value with RNA3WJ_3.0.0_5IB_3FAM turned out to be 83.7 °C; with RNA3WJ_1.1.1_5IB_3FAM it was 82.9 °C; in [1] it was 84.1 °C; with RNA3WJ_2.1.0_5IB_3FAM, 45.7 °C; in the experiment with RNA3WJ_1.1.0_5IB_3FAM, 85.5 °C; in the experiment on RNA3WJ_2.0.0_5IB_3FAM, 84.3 °C. Also, the “Melting temp [° C.] + cmpd” value in experiment [2] was found to be 58.2 °C; in [3], 87.0 °C; in experiment [4], 56.9 °C. For the same compound, the “Temp. Shift [° C.]” value was 21.7 °C with RNA3WJ_3.0.0_5IB_3FAM; 20.7 °C in the experiment on RNA3WJ_1.1.1_5IB_3FAM; 24.2 °C in experiment [1]; 3.8 °C in the experiment on RNA3WJ_2.1.0_5IB_3FAM; 22.2 °C in the experiment with RNA3WJ_1.1.0_5IB_3FAM; 22.1 °C in the experiment with RNA3WJ_2.0.0_5IB_3FAM. The “Temp. Shift [° C.]” value is 20.4 °C in experiment [2]; ~21 °C in [2] (listed as Ark000013); 21.4 °C in experiment [3]; 12.2 °C in [4]; ~13 °C in experiment [4] (listed as Ark000013). For the same compound, the “Effect in the melting curves (in words)” value in [3] (FIG. 111, listed as Ark000013) is recorded as “significant effect”.
